target: human LRRK2 kinase (Homo sapiens, UniProt Q5S007); settings: LRRK2, ADP-Glo, ATP 10 μM, 60 minutes at 25° C.
Sequence (Q5S007 whole entry): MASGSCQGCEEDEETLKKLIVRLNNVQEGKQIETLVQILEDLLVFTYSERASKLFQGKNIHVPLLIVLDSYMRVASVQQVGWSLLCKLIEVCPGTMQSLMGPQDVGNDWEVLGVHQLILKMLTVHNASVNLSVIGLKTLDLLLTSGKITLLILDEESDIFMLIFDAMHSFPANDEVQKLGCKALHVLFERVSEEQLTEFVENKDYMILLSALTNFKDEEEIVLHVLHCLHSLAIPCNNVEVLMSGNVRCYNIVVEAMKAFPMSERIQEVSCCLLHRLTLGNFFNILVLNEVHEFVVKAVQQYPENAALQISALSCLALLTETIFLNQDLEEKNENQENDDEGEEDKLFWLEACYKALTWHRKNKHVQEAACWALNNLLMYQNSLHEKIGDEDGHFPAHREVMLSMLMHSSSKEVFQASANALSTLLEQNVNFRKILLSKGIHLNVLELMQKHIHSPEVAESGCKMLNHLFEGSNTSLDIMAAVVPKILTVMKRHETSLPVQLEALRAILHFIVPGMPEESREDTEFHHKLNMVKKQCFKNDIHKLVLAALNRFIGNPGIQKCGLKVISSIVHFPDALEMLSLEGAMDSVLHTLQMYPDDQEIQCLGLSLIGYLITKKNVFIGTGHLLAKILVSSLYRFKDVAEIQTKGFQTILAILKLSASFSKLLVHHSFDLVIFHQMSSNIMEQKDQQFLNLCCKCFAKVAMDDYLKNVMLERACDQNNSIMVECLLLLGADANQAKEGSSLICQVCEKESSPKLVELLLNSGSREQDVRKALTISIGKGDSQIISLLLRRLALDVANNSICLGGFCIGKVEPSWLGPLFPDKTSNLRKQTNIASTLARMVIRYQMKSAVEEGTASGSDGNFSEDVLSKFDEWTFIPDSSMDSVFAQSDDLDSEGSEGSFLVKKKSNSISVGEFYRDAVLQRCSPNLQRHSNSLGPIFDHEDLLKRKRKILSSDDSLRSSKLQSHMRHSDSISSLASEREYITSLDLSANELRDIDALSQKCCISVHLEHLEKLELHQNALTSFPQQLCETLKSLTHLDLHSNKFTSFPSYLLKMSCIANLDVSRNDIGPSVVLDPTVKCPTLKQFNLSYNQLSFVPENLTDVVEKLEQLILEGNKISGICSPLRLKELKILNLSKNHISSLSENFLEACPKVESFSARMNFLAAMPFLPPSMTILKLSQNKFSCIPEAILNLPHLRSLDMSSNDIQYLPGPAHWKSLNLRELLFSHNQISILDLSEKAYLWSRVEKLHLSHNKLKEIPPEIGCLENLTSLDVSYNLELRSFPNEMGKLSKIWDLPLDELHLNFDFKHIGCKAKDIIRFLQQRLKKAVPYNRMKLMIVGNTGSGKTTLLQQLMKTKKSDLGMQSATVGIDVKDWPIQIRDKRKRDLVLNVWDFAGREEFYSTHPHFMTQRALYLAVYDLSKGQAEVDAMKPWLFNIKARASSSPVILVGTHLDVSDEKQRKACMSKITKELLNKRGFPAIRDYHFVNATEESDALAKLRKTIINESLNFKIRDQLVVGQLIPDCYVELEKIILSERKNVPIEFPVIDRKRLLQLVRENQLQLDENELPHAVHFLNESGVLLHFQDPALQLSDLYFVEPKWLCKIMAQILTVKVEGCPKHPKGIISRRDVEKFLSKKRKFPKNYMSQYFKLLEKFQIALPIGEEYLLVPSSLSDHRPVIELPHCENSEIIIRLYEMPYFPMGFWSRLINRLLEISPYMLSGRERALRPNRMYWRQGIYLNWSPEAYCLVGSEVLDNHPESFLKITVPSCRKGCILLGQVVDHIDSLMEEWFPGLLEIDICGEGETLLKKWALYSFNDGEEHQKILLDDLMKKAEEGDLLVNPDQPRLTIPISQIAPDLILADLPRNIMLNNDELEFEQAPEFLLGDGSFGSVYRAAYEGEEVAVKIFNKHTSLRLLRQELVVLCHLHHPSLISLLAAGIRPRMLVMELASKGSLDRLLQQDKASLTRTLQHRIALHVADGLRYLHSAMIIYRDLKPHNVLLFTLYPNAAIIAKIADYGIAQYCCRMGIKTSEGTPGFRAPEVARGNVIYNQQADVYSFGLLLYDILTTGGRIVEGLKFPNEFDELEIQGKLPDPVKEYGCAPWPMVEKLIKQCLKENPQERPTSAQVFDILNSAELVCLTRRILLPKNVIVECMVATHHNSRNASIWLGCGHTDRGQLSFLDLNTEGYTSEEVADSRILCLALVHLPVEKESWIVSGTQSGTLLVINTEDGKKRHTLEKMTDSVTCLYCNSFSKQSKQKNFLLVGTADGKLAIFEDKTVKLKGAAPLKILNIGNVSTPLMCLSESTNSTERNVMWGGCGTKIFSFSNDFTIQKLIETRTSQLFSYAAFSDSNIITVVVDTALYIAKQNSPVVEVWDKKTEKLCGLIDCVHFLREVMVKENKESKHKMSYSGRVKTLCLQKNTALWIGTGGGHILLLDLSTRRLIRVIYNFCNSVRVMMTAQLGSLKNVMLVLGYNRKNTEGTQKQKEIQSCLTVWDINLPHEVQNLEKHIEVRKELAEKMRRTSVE

Row | Compound | IC50
1 | CCNc1nc(Nc2ccc(P3(=O)CCN(C4CC4)CC3)cc2OC)nc2[nH]cc(Cl)c12 [Compound 84, 4-(4-((5-chloro-4-(ethylamino)-7H-pyrrolo[2,3-d]pyrimidin-2-yl)amino)-3-methoxyphenyl)-1-cyclopropyl-1,4-azaphosphinane 4-oxide] | 10 to 100 nM
2 | COc1cc(S(=O)(=O)N2CCC(N3CCOCC3)CC2)ccc1Nc1nc(NC(C)C)c2c(Cl)c[nH]c2n1 [Compound 87, 5-chloro-N4-isopropyl-N2-(2-methoxy-4-((4-morpholinopiperidin-1-yl)sulfonyl)phenyl)-7H-pyrrolo[2,3-d]pyrimidine-2,4-diamine] | 100 to 1000 nM
3 | CCCCNc1nc(Nc2ccc(S(=O)(=O)N3CCC(N4CCOCC4)CC3)cc2OC)nc2[nH]cc(Cl)c12 [Compound 72, N4-butyl-5-chloro-N2-(2-methoxy-4-((4-morpholinopiperidin-1-yl)sulfonyl)phenyl)-7H-pyrrolo[2,3-d]pyrimidine-2,4-diamine] | 10 to 100 nM
4 | CCC(C)Nc1nc(Nc2ccc(S(=O)(=O)N3CCC(N4CCOCC4)CC3)cc2OC)nc2[nH]cc(Cl)c12 (stereo in doubt) [Compound 52, (S)—N4-(sec-butyl)-5-chloro-N2-(2-methoxy-4-((4-morpholinopiperidin-1-yl)sulfonyl)phenyl)-7H-pyrrolo[2,3-d]pyrimidine-2,4-diamine] | 10 to 100 nM
5 | COc1cc(P2(=O)CCN(C3CC3)CC2)ccc1Nc1nc(NC2CCC2)c2c(Cl)c[nH]c2n1 [Compound 104, 4-(4-((5-chloro-4-(cyclobutylamino)-7H-pyrrolo[2,3-d]pyrimidin-2-yl)amino)-3-methoxyphenyl)-1-cyclopropyl-1,4-azaphosphinane 4-oxide] | 10 to 100 nM
6 | COc1cc(P2(=O)CCN(C3CC3)CC2)ccc1Nc1nc(NC2CC2)c2c(Cl)c[nH]c2n1 [Compound 90, 4-(4-((5-chloro-4-(cyclopropylamino)-7H-pyrrolo[2,3-d]pyrimidin-2-yl)amino)-3-methoxyphenyl)-1-cyclopropyl-1,4-azaphosphinane 4-oxide] | 10 to 100 nM
7 | COc1cc(P2(=O)CCN(C3CCOCC3)CC2)ccc1Nc1nc(NC2CCCCC2)c2c(Cl)c[nH]c2n1 [Compound 81, 4-(4-((5-chloro-4-(cyclohexylamino)-7H-pyrrolo[2,3-d]pyrimidin-2-yl)amino)-3-methoxyphenyl)-1-(tetrahydro-2H-pyran-4-yl)-1,4-azaphosphinane 4-oxide] | 10 to 100 nM
8 | COc1cc(S(C)(=O)=O)ccc1Nc1nc(NCC(C)C)c2c(Cl)c[nH]c2n1 [Compound 32, 5-chloro-N4-isobutyl-N2-(2-methoxy-4-(methylsulfonyl)phenyl)-7H-pyrrolo[2,3-d]pyrimidine-2,4-diamine] | 100 to 1000 nM
9 | COc1cc(S(=O)(=O)N2CCOCC2)ccc1Nc1nc(NC2CCCC2)c2c(Cl)c[nH]c2n1 [Compound 55, 5-chloro-N4-cyclopentyl-N2-(2-methoxy-4-(morpholinosulfonyl)phenyl)-7H-pyrrolo[2,3-d]pyrimidine-2,4-diamine] | 100 to 1000 nM
10 | COCCNc1nc(Nc2ccc(S(=O)(=O)N3CCOCC3)cc2OC)nc2[nH]cc(Cl)c12 [Compound 21, 5-chloro-N2-(2-methoxy-4-(morpholinosulfonyl)phenyl)-N4-(2-methoxyethyl)-7H-pyrrolo[2,3-d]pyrimidine-2,4-diamine] | < 10 nM
11 | CNc1nc(Nc2ccc(C(=O)N3CCOCC3)c3c2OCCO3)nc2[nH]cc(Cl)c12 [Compound 14, (8-((5-chloro-4-(methylamino)-7H-pyrrolo[2,3-d]pyrimidin-2-yl)amino)-2,3-dihydrobenzo[b][1,4]dioxin-5-yl)(morpholino)methanone] | < 10 nM
12 | CCCCNc1nc(Nc2ccc(S(C)(=O)=O)cc2OC)nc2[nH]cc(Cl)c12 [Compound 73, N4-butyl-5-chloro-N2-(2-methoxy-4-(methylsulfonyl)phenyl)-7H-pyrrolo[2,3-d]pyrimidine-2,4-diamine] | 10 to 100 nM
13 | COc1cc(S(C)(=O)=O)ccc1Nc1nc(NCC2CCC2)c2c(Cl)c[nH]c2n1 [Compound 66, 5-chloro-N4-(cyclobutylmethyl)-N2-(2-methoxy-4-(methylsulfonyl)phenyl)-7H-pyrrolo[2,3-d]pyrimidine-2,4-diamine] | 100 to 1000 nM
14 | COc1cc(S(=O)(=O)N2CCOCC2)ccc1Nc1nc(NC2CC2)c2c(Cl)c[nH]c2n1 [Compound 24, 5-chloro-N4-cyclopropyl-N2-(2-methoxy-4-(morpholinosulfonyl)phenyl)-7H-pyrrolo[2,3-d]pyrimidine-2,4-diamine] | 10 to 100 nM
15 | COc1cc(S(C)(=O)=O)ccc1Nc1nc(NC2CCC2)c2c(Cl)c[nH]c2n1 [Compound 29, 5-chloro-N4-cyclobutyl-N2-(2-methoxy-4-(methylsulfonyl)phenyl)-7H-pyrrolo[2,3-d]pyrimidine-2,4-diamine] | 10 to 100 nM
16 | CCCNc1nc(Nc2ccc(P3(=O)CCN(C(C)=O)CC3)cc2OC)nc2[nH]cc(Cl)c12 [Compound 100, 1-(4-(4-((5-chloro-4-(propylamino)-7H-pyrrolo[2,3-d]pyrimidin-2-yl)amino)-3-methoxyphenyl)-4-oxido-1,4-azaphosphinan-1-yl)ethan-1-one] | 10 to 100 nM
17 | COCCNc1nc(Nc2ccc(S(C)(=O)=O)cc2OC)nc2[nH]cc(Cl)c12 [Compound 23, 5-chloro-N2-(2-methoxy-4-(methylsulfonyl)phenyl)-N4-(2-methoxyethyl)-7H-pyrrolo[2,3-d]pyrimidine-2,4-diamine] | < 10 nM
18 | O=C(c1ccc(Nc2nc(NC3CC3)c3c(Cl)c[nH]c3n2)c2c1OCCO2)N1CCC(N2CCOCC2)CC1 [Compound 3, (8-((5-chloro-4-(cyclopropylamino)-7H-pyrrolo[2,3-d]pyrimidin-2-yl)amino)-2,3-dihydrobenzo[b][1,4]dioxin-5-yl)(4-morpholinopiperidin-1-yl)methanone] | < 10 nM
19 | O=C(c1ccc(Nc2nc(NC3CCC3)c3c(Cl)c[nH]c3n2)c2c1OCCO2)N1CCC(N2CCOCC2)CC1 [Compound 4, (8-((5-chloro-4-(cyclobutylamino)-7H-pyrrolo[2,3-d]pyrimidin-2-yl)amino)-2,3-dihydrobenzo[b][1,4]dioxin-5-yl)(4-morpholinopiperidin-1-yl)methanone] | < 10 nM
20 | COc1cc(S(=O)(=O)N2CCC(N3CCOCC3)CC2)ccc1Nc1nc(NC2CCCC2)c2c(Cl)c[nH]c2n1 [Compound 56, 5-chloro-N4-cyclopentyl-N2-(2-methoxy-4-((4-morpholinopiperidin-1-yl)sulfonyl)phenyl)-7H-pyrrolo[2,3-d]pyrimidine-2,4-diamine] | 10 to 100 nM

Results, then the molecule that gave them:

Row | IC50 | Compound
21 | < 10 nM | CCNc1nc(Nc2ccc(C(=O)N3CCOCC3)c3c2OCCO3)nc2[nH]cc(Cl)c12 [Compound 17, (8-((5-chloro-4-(ethylamino)-7H-pyrrolo[2,3-d]pyrimidin-2-yl)amino)-2,3-dihydrobenzo[b][1,4]dioxin-5-yl)(morpholino)methanone]
22 | < 10 nM | CCNc1nc(Nc2ccc(P3(=O)CCN(C(C)=O)CC3)cc2OC)nc2[nH]cc(Cl)c12 [Compound 98]
23 | < 10 nM | CCNc1nc(Nc2ccc(C(=O)N3CCOCC3)c3c2OCC3)nc2[nH]cc(Cl)c12 [Compound 101, (7-((5-chloro-4-(ethylamino)-7H-pyrrolo[2,3-d]pyrimidin-2-yl)amino)-2,3-dihydrobenzofuran-4-yl)(morpholino)methanone]
24 | < 10 nM | COc1cc(S(=O)(=O)N2CCC(N3CCOCC3)CC2)ccc1Nc1nc(NCCS(C)(=O)=O)c2c(Cl)c[nH]c2n1 [Compound 69, 5-chloro-N2-(2-methoxy-4-((4-morpholinopiperidin-1-yl)sulfonyl)phenyl)-N4-(2-(methylsulfonyl)ethyl)-7H-pyrrolo[2,3-d]pyrimidine-2,4-diamine]
25 | < 10 nM | COCCNc1nc(Nc2ccc(S(=O)(=O)N3CCC(N4CCOCC4)CC3)cc2OC)nc2[nH]cc(Cl)c12 [Compound 22, 5-chloro-N2-(2-methoxy-4-((4-morpholinopiperidin-1-yl)sulfonyl)phenyl)-N4-(2-methoxyethyl)-7H-pyrrolo[2,3-d]pyrimidine-2,4-diamine]
26 | < 10 nM | O=C(c1ccc(Nc2nc(N[C@H]3CCOC3)c3c(Cl)c[nH]c3n2)c2c1OCCO2)N1CCOCC1 [Compound 95]
27 | < 10 nM | CNc1nc(Nc2ccc(P3(=O)CCN(C(C)=O)CC3)cc2OC)nc2[nH]cc(Cl)c12 [Compound 82, 1-(4-(4-((5-chloro-4-(methylamino)-7H-pyrrolo[2,3-d]pyrimidin-2-yl)amino)-3-methoxyphenyl)-4-oxido-1,4-azaphosphinan-1-yl)ethan-1-one]
28 | < 10 nM | CNc1nc(Nc2ccc(S(=O)(=O)N3CCOCC3)cc2OC)nc2[nH]cc(Cl)c12 [Compound 11, 5-chloro-N2-(2-methoxy-4-(morpholinosulfonyl)phenyl)-N4-methyl-7H-pyrrolo[2,3-d]pyrimidine-2,4-diamine]
29 | < 10 nM | COc1cc(S(=O)(=O)N2CCOCC2)ccc1Nc1nc(NC2CCOCC2)c2c(Cl)c[nH]c2n1 [Compound 62, 5-chloro-N2-(2-methoxy-4-(morpholinosulfonyl)phenyl)-N4-(tetrahydro-2H-pyran-4-yl)-7H-pyrrolo[2,3-d]pyrimidine-2,4-diamine]
30 | < 10 nM | CS(=O)(=O)CCNc1nc(Nc2ccc(C(=O)N3CCOCC3)c3c2OCCO3)nc2[nH]cc(Cl)c12 [Compound 70, (8-((5-chloro-4-((2-(methylsulfonyl)ethyl)amino)-7H-pyrrolo[2,3-d]pyrimidin-2-yl)amino)-2,3-dihydrobenzo[b][1,4]dioxin-5-yl)(morpholino)methanone]
31 | < 10 nM | COc1cc(S(C)(=O)=O)ccc1Nc1nc(N[C@H]2CCOC2)c2c(Cl)c[nH]c2n1 [Compound 94, (S)-5-chloro-N2-(2-methoxy-4-(methylsulfonyl)phenyl)-N4-(tetrahydrofuran-3-yl)-7H-pyrrolo[2,3-d]pyrimidine-2,4-diamine]

same assay, conditions: read-out: LRRK2; ADP-Glo, ATP 10 μM, 60 minutes at 25° C.

Row | IC50 | Compound
32 | 100 to 1000 nM | CCC(C)Nc1nc(Nc2ccc(S(=O)(=O)N3CCOCC3)cc2OC)nc2[nH]cc(Cl)c12 (stereo in doubt) [Compound 51, (S)—N4-(sec-butyl)-5-chloro-N2-(2-methoxy-4-(morpholinosulfonyl)phenyl)-7H-pyrrolo[2,3-d]pyrimidine-2,4-diamine]

— patent publication US12479847B2 (DANA-FARBER CANCER INSTITUTE, INC., priority 2019, dated 2025)
